Assay results from patent publication US6914045B2, “Glycopeptide antibiotics” (Wyeth Holdings Corporation, priority 2001, dated 2005).
In brackets after ≈: the same amount, converted by molar mass.

Tests used:
Experiment in all cases: in vitro antibacterial evaluation, MIC by broth dilution
Assay type in all cases: cell-based
Escherichia coli = details: 18 hours at 35° C.
Staphylococcus sp. = details: broth dilution, 18 hours at 35° C.
Outline: (§1)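 Test organisms, which included recent clinical isolates resistant to methicillin, penicillin and/or vancomycin, were inoculated at 5×10^5 CFU/mL into Muller-Hinton II […] containing antibiotic at 64-0.06 μg/mL. Minimum inhibitory concentrations were then read as the lowest level inhibiting growth.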

Enterococcus sp. = details: broth dilution, 18 hours at 35° C.
Outline: as §1

Streptococcus sp. = details: broth dilution, 18 hours at 35° C.
Outline: as §1

- MIC Escherichia coli (ATCC 25922) (Escherichia coli): >64 mg/L
- MIC Escherichia coli (GC 4559) (Escherichia coli): >64 mg/L
- MIC Escherichia coli (GC 4560) (Escherichia coli): 2 mg/L (≈ 1.31 µM)
- MIC Coagulase Negative Staphylococcus (GC 4547) (Staphylococcus sp.): 2 mg/L (≈ 1.31 µM)
- MIC Coagulase Negative Staphylococcus (GC 4548) (Staphylococcus sp.): 1 mg/L (≈ 0.657 µM)
- MIC Coagulase Negative Staphylococcus (GC 4549) (Staphylococcus sp.): 2 mg/L (≈ 1.31 µM)
- MIC Coagulase Negative Staphylococcus (GC 4551) (Staphylococcus sp.): 2 mg/L (≈ 1.31 µM)
- MIC Coagulase Negative Staphylococcus (GC 6257) (Staphylococcus sp.): 2 mg/L (≈ 1.31 µM)
- MIC Staphylococcus aureus (ATCC 29213) (Staphylococcus sp.): 4 mg/L (≈ 2.63 µM)
- MIC Staphylococcus aureus (GC 1131) (Staphylococcus sp.): 4 mg/L (≈ 2.63 µM)
- MIC Staphylococcus aureus (GC 3051) (Staphylococcus sp.): 2 mg/L (≈ 1.31 µM)
- MIC Staphylococcus aureus (GC 3053) (Staphylococcus sp.): 4 mg/L (≈ 2.63 µM)
- MIC Staphylococcus aureus (GC 4541) (Staphylococcus sp.): 4 mg/L (≈ 2.63 µM)
- MIC Staphylococcus aureus (GC 4542) (Staphylococcus sp.): 4 mg/L (≈ 2.63 µM)
- MIC Staphylococcus aureus (GC 4544) (Staphylococcus sp.): 4 mg/L (≈ 2.63 µM)
- MIC Staphylococcus aureus (GC 4545) (Staphylococcus sp.): 4 mg/L (≈ 2.63 µM)
- MIC Staphylococcus aureus-SMITH (GC 4543) (Staphylococcus sp.): 2 mg/L (≈ 1.31 µM)
- MIC Staphylococcus aureus (ATCC 29213) (Staphylococcus sp.; strain ATCC 29213): 4 mg/L (≈ 2.63 µM)
- MIC Staphylococcus aureus (GC 1131) (Staphylococcus sp.; strain GC 1131): 4 mg/L (≈ 2.63 µM)
- MIC Staphylococcus aureus (GC 3051) (Staphylococcus sp.; strain GC 3051): 2 mg/L (≈ 1.31 µM)
- MIC Staphylococcus aureus (GC 3053) (Staphylococcus sp.; strain GC 3053): 4 mg/L (≈ 2.63 µM)
- MIC Staphylococcus aureus (GC 4541) (Staphylococcus sp.; strain GC 4541): 4 mg/L (≈ 2.63 µM)
- MIC Staphylococcus aureus (GC 4542) (Staphylococcus sp.; strain GC 4542): 4 mg/L (≈ 2.63 µM)
- MIC Staphylococcus aureus-SMITH (GC 4543) (Staphylococcus sp.; strain GC 4543): 2 mg/L (≈ 1.31 µM)
- MIC Staphylococcus aureus (GC 4544) (Staphylococcus sp.; strain GC 4544): 4 mg/L (≈ 2.63 µM)
- MIC Staphylococcus aureus (GC 4545) (Staphylococcus sp.; strain GC 4545): 4 mg/L (≈ 2.63 µM)
- MIC Coagulase Negative Staphylococcus (GC 4547) (Staphylococcus sp.; strain GC 4547): 2 mg/L (≈ 1.31 µM)
- MIC Coagulase Negative Staphylococcus (GC 4548) (Staphylococcus sp.; strain GC 4548): 1 mg/L (≈ 0.657 µM)
- MIC Coagulase Negative Staphylococcus (GC 4549) (Staphylococcus sp.; strain GC 4549): 2 mg/L (≈ 1.31 µM)
- MIC Coagulase Negative Staphylococcus (GC 4551) (Staphylococcus sp.; strain GC 4551): 2 mg/L (≈ 1.31 µM)
- MIC Coagulase Negative Staphylococcus (GC 6257) (Staphylococcus sp.; strain GC 6257): 2 mg/L (≈ 1.31 µM)
- MIC Enterococcus avium (GC 4558) (Enterococcus sp.): 8 mg/L (≈ 5.26 µM)
- MIC Enterococcus faecalis (ATCC 29212) (Enterococcus sp.): 8 mg/L (≈ 5.26 µM)
- MIC Enterococcus faecalis (GC 2242) (Enterococcus sp.): 8 mg/L (≈ 5.26 µM)
- MIC Enterococcus faecalis (GC 2691) (Enterococcus sp.): 8 mg/L (≈ 5.26 µM)
- MIC Enterococcus faecalis (GC 3059) (Enterococcus sp.): 8 mg/L (≈ 5.26 µM)
- MIC Enterococcus faecalis (GC 4552) (Enterococcus sp.): 8 mg/L (≈ 5.26 µM)
- MIC Enterococcus faecalis (GC 4553) (Enterococcus sp.): 8 mg/L (≈ 5.26 µM)
- MIC Enterococcus faecalis (GC 4554) (Enterococcus sp.): 16 mg/L (≈ 10.5 µM)
- MIC Enterococcus faecalis (GC 6189) (Enterococcus sp.): 8 mg/L (≈ 5.26 µM)
- MIC Enterococcus faecium (GC 2243) (Enterococcus sp.): 8 mg/L (≈ 5.26 µM)
- MIC Enterococcus faecium (GC 4556) (Enterococcus sp.): 8 mg/L (≈ 5.26 µM)
- MIC Enterococcus faecium (GC 4557) (Enterococcus sp.): 4 mg/L (≈ 2.63 µM)
- MIC Enterococcus faecalis (ATCC 29212) (Enterococcus sp.; strain ATCC 29212): 8 mg/L (≈ 5.26 µM)
- MIC Enterococcus faecium (GC 2243) (Enterococcus sp.; strain GC 2243): 8 mg/L (≈ 5.26 µM)
- MIC Enterococcus faecalis (GC 4552) (Enterococcus sp.; strain GC 4552): 8 mg/L (≈ 5.26 µM)
- MIC Enterococcus faecalis (GC 4553) (Enterococcus sp.; strain GC 4553): 8 mg/L (≈ 5.26 µM)
- MIC Enterococcus faecalis (GC 4554) (Enterococcus sp.; strain GC 4554): 16 mg/L (≈ 10.5 µM)
- MIC Enterococcus faecium (GC 4556) (Enterococcus sp.; strain GC 4556): 8 mg/L (≈ 5.26 µM)
- MIC Enterococcus faecium (GC 4557) (Enterococcus sp.; strain GC 4557): 4 mg/L (≈ 2.63 µM)
- MIC Enterococcus avium (GC 4558) (Enterococcus sp.; strain GC 4558): 8 mg/L (≈ 5.26 µM)
- MIC Enterococcus faecalis (GC 6189) (Enterococcus sp.; strain GC 6189): 8 mg/L (≈ 5.26 µM)
- MIC Enterococcus faecalis (GC 2242) (Enterococcus sp.; inoculum 5×10^5 CFU/mL, strain GC 2242): 8 mg/L (≈ 5.26 µM)
- MIC Enterococcus faecalis (GC 2691) (Enterococcus sp.; inoculum 5×10^5 CFU/mL, strain GC 2691): 8 mg/L (≈ 5.26 µM)
- MIC Enterococcus faecalis (GC 3059) (Enterococcus sp.; inoculum 5×10^5 CFU/mL, strain GC 3059): 8 mg/L (≈ 5.26 µM)
- MIC Streptococcus agalactiae (GC 4564) (Streptococcus sp.): 1 mg/L (≈ 0.657 µM)
- MIC Streptococcus pneumoniae (ATCC 6301) (Streptococcus sp.): 0.25 mg/L (≈ 0.164 µM)
- MIC Streptococcus pneumoniae (GC 1894) (Streptococcus sp.): <0.06 mg/L
- MIC Streptococcus pneumoniae (GC 4565) (Streptococcus sp.): 0.25 mg/L (≈ 0.164 µM)
- MIC Streptococcus pyogenes (GC 4563) (Streptococcus sp.): 2 mg/L (≈ 1.31 µM)
- MIC Streptococcus pneumoniae (ATCC 6301) (Streptococcus sp.; inoculum 5×10^5 CFU/mL, strain ATCC 6301): 0.25 mg/L (≈ 0.164 µM)
- MIC Streptococcus pneumoniae (GC 1894) (Streptococcus sp.; inoculum 5×10^5 CFU/mL, strain GC 1894): <0.06 mg/L
- MIC Streptococcus pyogenes (GC 4563) (Streptococcus sp.; inoculum 5×10^5 CFU/mL, strain GC 4563): 2 mg/L (≈ 1.31 µM)
- MIC Streptococcus agalactiae (GC 4564) (Streptococcus sp.; inoculum 5×10^5 CFU/mL, strain GC 4564): 1 mg/L (≈ 0.657 µM)
- MIC Streptococcus pneumoniae (GC 4565) (Streptococcus sp.; inoculum 5×10^5 CFU/mL, strain GC 4565): 0.25 mg/L (≈ 0.164 µM)
Compound: COc1ccc(COC2C(CO)OC(OC3C(CO)OC(Oc4ccc(CC5NC(=O)C(C(C)c6ccccc6)NC(=O)CNC(=O)C(CO)NC(=O)C(C(O)C6CNC(=N)N6C6OC(CO)C(O)C(O)C6O)NC(=O)C(C(O)C6CNC(=N)N6)NC5=O)cc4)C(O)C3O)C(O)C2O)cc1OCc1ccccc1 (stereo not shown) [Example 239a]
- MIC Staphylococcus haemolyticus (GC 4546) (Staphylococcus sp.): 2 mg/L (≈ 1.31 µM)
- MIC Staphylococcus haemolyticus (GC 4546) (Staphylococcus sp.; strain GC 4546): 2 mg/L (≈ 1.31 µM)
